Results: ChEMBL document CHEMBL4342480, “Design of Dual Inhibitors of Soluble Epoxide Hydrolase and LTA4 Hydrolase” (ACS Med Chem Lett, 2020)
pIC50: −log10 of the molar value.

Key:
[1] = molecular target: T1, Bifunctional epoxide hydrolase 2 (Homo sapiens, UniProt P34913); assay: Inhibition of full length human soluble epoxide hydrolase (1 to 555 residues) expressed in Escherichia coli BL21(DE3) using non-fluorescent PHOME as substrate preincubated for 30 mins followed by substrate addition and measured for 30 mins by fluorescence based assay
T1 sequence (P34913 whole entry): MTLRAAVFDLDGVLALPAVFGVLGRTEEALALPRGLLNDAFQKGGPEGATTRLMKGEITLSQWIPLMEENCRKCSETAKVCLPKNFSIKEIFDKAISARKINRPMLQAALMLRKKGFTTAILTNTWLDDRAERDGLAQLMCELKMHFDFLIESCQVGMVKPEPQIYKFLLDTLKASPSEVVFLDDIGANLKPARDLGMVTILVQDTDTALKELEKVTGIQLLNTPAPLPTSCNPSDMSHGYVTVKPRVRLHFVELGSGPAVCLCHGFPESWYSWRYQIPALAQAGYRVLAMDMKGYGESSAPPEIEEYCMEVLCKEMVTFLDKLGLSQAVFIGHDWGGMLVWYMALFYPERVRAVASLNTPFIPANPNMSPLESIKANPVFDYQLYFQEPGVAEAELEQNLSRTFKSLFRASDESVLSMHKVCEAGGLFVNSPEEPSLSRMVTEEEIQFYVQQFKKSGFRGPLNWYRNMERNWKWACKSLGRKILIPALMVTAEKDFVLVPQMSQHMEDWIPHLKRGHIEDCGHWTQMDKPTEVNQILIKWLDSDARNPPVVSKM

[2] = molecular target: T2, Leukotriene A-4 hydrolase (Homo sapiens, UniProt P09960); assay: Inhibition of (His)6 tagged human recombinant LTA4H expressed in Escherichia coli BL21(DE3) using non-fluorescent L-arginine-7-amino-4-methylcoumarine as substrate preincubated for 30 mins followed by substrate addition and measured for 30 mins by fluorescence based assay
T2 sequence (P09960 whole entry): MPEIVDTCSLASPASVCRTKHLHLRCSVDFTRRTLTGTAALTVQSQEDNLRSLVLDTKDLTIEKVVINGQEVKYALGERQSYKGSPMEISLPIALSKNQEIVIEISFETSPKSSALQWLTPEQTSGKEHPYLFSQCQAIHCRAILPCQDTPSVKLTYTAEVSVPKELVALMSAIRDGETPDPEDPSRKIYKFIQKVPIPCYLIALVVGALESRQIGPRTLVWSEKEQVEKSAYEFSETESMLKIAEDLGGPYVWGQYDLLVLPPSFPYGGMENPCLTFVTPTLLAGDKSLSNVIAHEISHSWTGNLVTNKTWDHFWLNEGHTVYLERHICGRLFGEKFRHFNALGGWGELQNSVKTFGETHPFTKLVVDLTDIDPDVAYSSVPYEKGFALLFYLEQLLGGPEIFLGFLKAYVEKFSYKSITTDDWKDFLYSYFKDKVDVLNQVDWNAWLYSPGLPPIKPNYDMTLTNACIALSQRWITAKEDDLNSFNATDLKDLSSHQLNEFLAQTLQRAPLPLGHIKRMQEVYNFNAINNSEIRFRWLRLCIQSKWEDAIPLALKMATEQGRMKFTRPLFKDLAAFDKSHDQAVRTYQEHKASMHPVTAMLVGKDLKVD

Row | Structure (SMILES) | pIC50 [1] | pIC50 [2]
1 | O=C(Cc1ccc(Oc2nc3ccccc3s2)cc1F)NCc1c[nH]c2cc(F)ccc12 | 5.25 | 6.05
2 | O=C(CCc1ccc(OCc2ccncc2)cc1)NCCc1ccc(F)cc1 | 6.10 | < 4.52
3 | O=C(Cc1ccc(Oc2nc3cc(C(F)(F)F)ccc3s2)cc1F)NCCc1ccc(F)cc1 | 5.77 | < 4.52
4 | O=C(Cc1ccc(Oc2ccccc2)cc1)NCCc1ccc(Cl)cc1 | 5.74 | –
5 | Fc1ccc(CCNCc2ccc(Oc3ccccc3)cc2)cc1 | 5.44 | 6.70
6 | O=C(Cc1ccc(Oc2nc3ccc(F)cc3s2)cc1F)NCCc1ccc(F)cc1 | 4.56 | < 4.52
7 | O=C(Cc1ccc(Oc2nc3ccccc3s2)cc1)NCCc1ccc(F)cc1 | 6.89 | 6.62
8 | O=C(Cc1ccc(Oc2ccccc2)cc1)NCCc1ccc(OC(F)(F)F)cc1 | 6.30 | –
9 | O=C(Cc1ccc(Oc2ccccc2)cc1)NCCc1ccc(F)cc1 | 6.05 | –
10 | O=C(Cc1ccc(Oc2ccccc2)cc1)NCCc1ccc(C(F)(F)F)cc1 | 6.30 | –
11 | O=C(Cc1ccc(Oc2nc3cc(F)ccc3s2)cc1F)NCCc1ccc(F)cc1 | 4.65 | < 4.52
12 | O=C(Cc1ccc(Oc2nc3ccccc3s2)cc1F)NCCc1ccccc1F | 6.22 | 5.42
13 | COC(=O)c1ccc(CNC(=O)Cc2ccc(Oc3nc4ccccc4s3)cc2F)cc1 | 7.00 | < 4.52
14 | O=C(Cc1ccc(Oc2nc3ccc(C(F)(F)F)cc3s2)cc1F)NCCc1ccc(F)cc1 | 4.70 | < 4.52
15 | O=C(Cc1ccc(Oc2nc3ccccc3s2)cc1F)NCCc1cccc(F)c1 | 6.40 | –
16 | Cc1ccc(CCNC(=O)Cc2ccc(Oc3ccccc3)cc2)cc1 | 5.96 | < 4.52
